Read-outs that look alike come from different tables or passages of the source.
Assays:
[1] = cited from earlier work
[2] = oral administration; cited from earlier work
[3] = oral rinse containing ketorolac; small number of patients; cited from earlier work
GCF-IL-1 beta = conditions: used as an oral rinse; cited from earlier work
Streptococcus mutants = conditions: for Growth: CFU/ml: subcultured on TSA, 24 hours
Procedure: A culture of Streptococcus mutants (causative bacteria for dental plaque) was grown in brain/heart infusion (BHI). Tubes containing 5 ml of BHI were inoculated with 0.1 ml of 10^5 CFU bacteria/ml and incubated anaerobically at 37° C. After 24 hours the turbidity was measured; the tubes were subcultured on TSA and incubated for 24 hours and colony counts were measured.

zinc picolinate
water solubility (in words) [1]: moderately water soluble

O=C(c1ccccc1)c1ccc2n1CCC2C(=O)O (stereo not shown) [ketorolac]
gastric mucosal side effect [2]: gastric mucosal ulceration
oral mucosal side effect [3]: ulceration in the oral mucosa was observed
effect on GCF-IL-1 beta in the oral cavity (GCF-IL-1 beta): reduce GCF-IL-1 beta

Zinc salicylate
anti-Streptococcus activity (conclusion) (Streptococcus mutants): exhibit anti-Streptococcus activity
Growth: CFU/ml (Streptococcus mutants; 25 ug/ml): >10^8 CFU/ml
Growth: CFU/ml (Streptococcus mutants; 50 ug/ml): >10^6 CFU/ml
Growth: CFU/ml (Streptococcus mutants; 100 ug/ml): 10 CFU/ml
Growth: CFU/ml (Streptococcus mutants; 200 ug/ml): 0 CFU/ml

zinc glycerate
water solubility (in words) [1]: moderately water soluble

From US20110229534A1, “Non-Irritating Oral Care Formulations” (The Trustees of Columbia University In The City Of New York, priority 2006, published 2011)
